Test results: patent US10945931B2, “Shaping keratin fibres using dialdehyde compounds” (The Procter & Gamble Company, priority 2015, dated 2021)

Assay: Hair straightening efficacy on hair switches, expert grading after wash-and-dry cycles
Settings: 10% treatment, QSP water buffered at pH 10; flat iron 232° C., 8 passes; after 10 wash cycles; 0-10 scale (0 curly, 10 very straight)
Protocol: The hair straightening efficacy is tested for the crosslinking compositions described herein. Switches of low lift naturally curly hair are employed. These are shampooed with a Pantene clarifying shampoo to ensure the hair is in a clean state with no residues that could affect the end result. The switches are then rinsed. Excess water is removed from the hair by wringing out the switches. The switches are treated with a crosslinking composition; QSP water buffered at pH 10. These ingredients are mixed on a spinner plate for 30 mins. 0.5 g of crosslinking composition per 1 g hair is employed. The crosslinking composition is left on the hair for 30 minutes. After this time, the hair is blow dried and brushed. The switches are then mechanically straightened with a flat iron (at 450° F. [232° C.] with 8 passes.
The switches are then imaged. To simulate durability, the switches are then given one wash-and-dry cycle. One wash-and-dry cycle involves shampooing with a Hairtrition shampoo (Hairtrition Color Protect sulfate-free shampoo from Zotos), rinsing and then drying in a hot box. Once dry the switches are imaged again. The switches are then given 9 further wash-and-dry cycles. Once dry the switches are imaged again. An expert grader gives the images of the switches a score on a 0-10 scale. The scale is a standard scale set as curly hair having 4-5 nodes of curls is a score of 0 and very straight hair is a 10. Thus, the switches are compared to a normal state of hair. Using an expert grader is reliable because the grader is trained on measuring/scaling the configuration of the hair from straight to curly in a consistent way. Numeric data obtained by this method is averaged, and statistical analysis is conducted using JMP statistical software available from the SAS Institute at the […] confidence level. […] However, given similar straightening efficacy the dialdehyde compounds described herein have advantages over glutaraldehyde due to the lower cost of materials and increased safety profile.

Structure (SMILES) | Straightening efficacy Mean grade
O=CC(O)C(O)C(O)C=O (stereo not drawn) [Pentodialdose, pentodialdose] | 5.33
O=CCCCC=O [Glutaraldehyde, glutaraldehyde] | 5.00
O=CC(O)CO (stereo not drawn) [Glyceraldehyde] | 2.67
